Test results taken from article PMC12113347, “Compound 3d Attenuates Metabolic Dysfunction-Associated Steatohepatitis via Peroxisome Proliferator-Activated Receptor Pathway Activation and Inhibition of Inflammatory and Apoptotic Signaling” (Metabolites, 2025).

Tests used:
RAW264.7 cells = assay: LPS-induced RAW264.7 cell inflammation model (TNF-α, NO, IL-6 in supernatant); assay type: cell-based
Procedure: RAW264.7 cells were bought from Guangzhou Huatuo Biological Technology Co., Ltd. (Guangzhou, China). RAW264.7 cells (1 × 10^5 cells/mL) were inoculated in 24-well plates. After 24 h, LPS (1 μg/mL) was added to induce cell inflammation. Subsequently, curcumin (100 μM), fenofibric acid (FA, 100 μM), or 3d (10, 20, 40 80 μM) was added for 24 h. The cell supernatant was collected for analysis of inflammatory factors, including nitric oxide (NO), interleukin-6 (IL-6), and tumor necrosis factor (TNF-α).

C57BL/6J male mice = assay: HFD-induced MASH model in mice: serum and liver biochemistry, body and liver weight, histology; assay type: in vivo
Procedure: All animal studies were conducted in accordance with national legislation and local guidelines at the Center for Laboratory Animals in Tianjin University of Science and Technology and approved by the Animal Ethics Committee of Tianjin University of Science and Technology (8 March 2022, Tianjin, China). The C57BL/6J male mice (6 weeks) were purchased from Henan Scribex Biotechnology Co, Ltd (Zhenzhou, China). Following a one-week period of acclimatization, the mice were fed a high-fat diet (HFD) comprising 60% fat (TP23300, Trophic Animal Feed High-Tech Co., Ltd., (Nantong, China)) and a low-fat control diet (TP23302, Trophic Animal Feed High-Tech Co., Ltd., (Nantong, China)) for 16 weeks.
After 16 weeks of continuous feeding on a high-fat diet, key indicators were tested to determine modeling success and drug administration was initiated. The mice were randomly divided into seven groups (n = 10) according to their body weight. The groups were as follows: control group (control diet, 0.5% CMC-Na), model group (HFD, 0.5% CMC-Na), positive control group (HFD, 100 mg/kg Fenofibrate), elafibranor group (HFD, 30 mg/kg), and 3d group (HFD, 3, 10, 30 mg/kg). The experiment was conducted over a period of eight weeks.
After fasting for 12 h, the mice were anaesthetized and blood samples were collected, as were the mice liver tissues. The ileal contents were collected and immediately frozen in liquid nitrogen and then transferred to storage at −80 °C. The blood samples were subjected to centrifugation at 3000 rpm/min for 10 min to obtain supernatant serum, which was stored at −80 °C. The liver tissues were weighed, and a portion of the liver was preserved in 4% paraformaldehyde for subsequent pathological sectioning, including staining with H&E, Masson, and Oil Red O. The remaining samples were stored at −80 °C for testing of various biochemical indices.
The serum levels of TG, total cholesterol (TC), low-density lipoprotein cholesterol (LDL-C), […] aminotransferase (AST), ALT, and TNF-α were determined according to the instructions of the kit. The levels of glutathione (GSH) and superoxide dismutase (SOD) were measured using liver tissue homogenates. The kits were purchased from the Nanjing Jiancheng Institute of Biological Engineering (Nanjing, China).

L02 cells = assay: ROS assay (DCFH-DA, flow cytometry) in FFA-treated L02 cells; assay type: cell-based, human; conditions: FFA-induced L02 cells
Excerpt: L02 cells were inoculated in 6-well plates at 1 × 10^5 cells/mL, and after completing the lipid-accumulating cell modeling treatment according to the method described in 2.1, the cells were collected and washed with 1× PBS buffer.
Reactive oxygen species (ROS) assay: ROS production was detected in the collected cells using a DCFH-DA fluorescent probe diluted in serum-free medium, and the stained cells were washed with 1× PBS buffer 3 times and then analyzed by flow cytometry.

gut microbiota = assay: Gut microbiota composition by 16S rRNA sequencing in MASH mice; assay type: in vivo
Procedure: Proteome sequencing of liver tissue samples was performed according to the specific requirements of the protocol by Beijing Qinglian Baiao Biotechnology Co., Ltd. (Beijing, China). Mouse fecal samples were collected and frozen in liquid nitrogen and stored at −80 °C.
Total DNA was extracted by QIAamp DNA Stool Mini Kit, homogenized by lysis buffer, digested by proteinase, and purified by a centrifugal column and then passed through NanoDrop and agarose gel electrophoresis for quality control. PCR amplification was performed with primers specific to the V3-V4 region of the bacterial 16S rRNA gene (341F: 5′-CCTAYGGGRBGCASCAG-3′; 806R: 5′-[…]-3′), and the reaction system consisted of 2 × Taq PCR Master Mix, and the program was 95 °C pre-denaturation for […] (95 °C for 30 s, 55 °C for 30 s, 72 °C for 45 s) and extension at 72 °C for 10 min. After purification, bipartite sequencing was performed using the Illumina MiSeq PE300 platform. After QIIME2 quality control, the raw data were clustered into OTUs with 97% similarity, and the species were annotated based on the Silva database to analyze the Alpha/Beta diversity and differential flora.

[1] = LPSs-induced, RAW264.7 macrophages, p < 0.01
[2] = HFD mice, liver tissue homogenates
[3] = HFD-fed mice, 30 mg/kg, p < 0.05 vs. model

Structure (SMILES): CNc1ccc(C(=O)/C=C/c2cc(C)c(OC(C)(C)C(=O)OC(C)(C)C)c(C)c2)cc1 [3d]
- levels of each inflammatory factor (TNF-α, NO, IL-6) (RAW264.7 cells; LPS 1 μg/mL, 3d 10, 20, 40, 80 μM, 24 h): significantly reduced
- IL-6 reduction (RAW264.7 cells; [1]): 48%
- NO decrease (RAW264.7 cells; [1]): 51%
- TNF-α reduction (RAW264.7 cells; [1]): 63%
- liver fibrosis (Masson staining) (C57BL/6J male mice; HFD mice): successfully reversed
- liver steatosis and lipid accumulation (HE, Oil Red O sections) (C57BL/6J male mice; HFD mice): significantly reduce the steatosis and ballooning in the liver and bring it back to normal
- serum TNF-α levels (C57BL/6J male mice; HFD mice): reversed and returned to normal levels
- serum levels of LDL-C (C57BL/6J male mice; HFD mice): markedly diminish
- body weight (C57BL/6J male mice; HFD mice, 8 weeks of treatment): no significant effect
- serum TG levels (C57BL/6J male mice; HFD mice, 8 weeks, fenofibrate 100 mg/kg, elafibranor 30 mg/kg, 3d 3, 10, 30 mg/kg): decreased and returned to normal levels
- liver GSH content (C57BL/6J male mice; [2]): counteracting the reduction
- liver SOD content (C57BL/6J male mice; [2]): counteracting the reduction
- TC levels (C57BL/6J male mice; HFD mice, 3d 3, 10, 30 mg/kg): dose-dependent reduction
- serum ALT activity (C57BL/6J male mice; HFD mice, 3d 3, 10, 30 mg/kg): dose-dependent reduction
- serum AST activity (C57BL/6J male mice; HFD mice, 3d 3, 10, 30 mg/kg): dose-dependent reduction
- serum LDL-C decline (C57BL/6J male mice; [3]): 45%
- serum TC reduction (C57BL/6J male mice; [3]): 32%
- serum TG decrease (C57BL/6J male mice; [3]): 39%
- serum TNF-α reduction (C57BL/6J male mice; [3]): 57%
- intracellular ROS levels (L02 cells): significant decrease in ROS levels
- Bifidobacterium rise (gut microbiota): 1.9 fold
- Lactobacillus increase (gut microbiota): 2.7 fold
- Proteobacteria decrease (gut microbiota; p < 0.05): 68%
- abundance of Firmicutes and Actinobacteria (gut microbiota; phylum level): significantly increased
- abundance of Proteobacteria and Deferribacteres (gut microbiota; phylum level): significantly reduced and returned to normal levels
- Shannon index (gut microbiota; α-diversity): decreased
- Simpson index (gut microbiota; α-diversity): increased
- community richness, Chao1 and ACE indices (gut microbiota; α-diversity): no significant effect
